This test deals with G. vag strain 14.2. Briefly: antibiotic synergy testing, checkerboard cross dilution method in broth cultures. The class given is cell-based, Gardnerella vaginalis. The conditions noted are these: Gardnerella vaginalis, 14.2; 32 mg/mL clindamycin, 24 hr; read-out: growth inhibited.

With `CCC[C@@H]1C[C@@H](C(=O)N[C@@H]([C@H]2O[C@H](SC)[C@H](O)[C@@H](O)[C@H]2O)[C@H](C)Cl)N(C)C1` [clindamycin, reference compound], the inhibition at 32000 µg/mL is 27.4%.
